The results in this text go back to the Kinase Knowledgebase extract (Sharma et al. 2016).

One test concerns the target MAPK14 (human) (UniProt Q16539). Particulars: Monocyte.
The test system of a further test is MAPK14 (Balb/c mice). Description: TNF-alpha Inhibition (Balb/c Mice).
A further test addresses MAPK14 (UniProt Q16539). Description: P38-alpha Kinase Inhibition.

Chain of MAPK14 (human) (Q16539 whole entry, looked up): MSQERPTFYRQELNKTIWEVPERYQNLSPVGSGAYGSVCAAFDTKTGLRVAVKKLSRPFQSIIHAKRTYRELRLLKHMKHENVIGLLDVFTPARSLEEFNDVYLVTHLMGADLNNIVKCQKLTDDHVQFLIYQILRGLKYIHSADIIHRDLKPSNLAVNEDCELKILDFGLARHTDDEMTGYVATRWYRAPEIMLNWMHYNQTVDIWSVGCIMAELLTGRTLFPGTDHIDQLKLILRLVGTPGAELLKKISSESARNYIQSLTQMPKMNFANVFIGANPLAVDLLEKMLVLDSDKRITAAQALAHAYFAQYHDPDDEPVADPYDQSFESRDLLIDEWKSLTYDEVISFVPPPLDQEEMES
Chain of MAPK14 (Q16539 whole entry, looked up): as above

Take `C[C@]1(N)CO[C@H](c2nc(-c3ccncc3)c(-c3ccc(F)cc3)[nH]2)OC1`: the concentration giving a half-maximal response (EC50) (usually the concentration needed to bring the measured effect to its halfway point) at MAPK14 (human) was determined as 180 nM.

For the compound `C[C@]1(N)CO[C@@H](c2nc(-c3ccncc3)c(-c3ccc(F)cc3)[nH]2)OC1`, the EC50 at MAPK14 (human) stood at 55 nM.

On MAPK14 (human), `OC[C@H]1CO[C@@H](c2nc(-c3ccncc3)c(-c3ccc(F)cc3)[nH]2)OC1` showed an EC50 of 200 nM.

On MAPK14 (human), `C=C1COC(c2nc(-c3ccncc3)c(-c3ccc(F)cc3)[nH]2)OC1` returned a concentration giving a half-maximal response (EC50) of 117 nM.

`Fc1ccc(-c2[nH]c([C@H]3OC[C@@H](Cc4ccccc4)CO3)nc2-c2ccncc2)cc1` displayed a 50% effective concentration (EC50) on MAPK14 (human) of 145 nM.

Compound `CC(C)C1O[C@H](c2nc(-c3ccncc3)c(-c3ccc(F)cc3)[nH]2)OCC1(C)C` (stereo partly specified) returned an EC50 on MAPK14 (human) of 115 nM.

Consider `C[C@]1(CN)CO[C@H](c2nc(-c3ccncc3)c(-c3ccc(F)cc3)[nH]2)OC1`, for which the EC50 on MAPK14 (human) came to 38 nM.

Turning to `C[C@]1(C(=O)N2CCOCC2)CO[C@H](c2nc(-c3ccncc3)c(-c3ccc(F)cc3)[nH]2)OC1`, the 50% effective concentration (EC50) on MAPK14 (human) came out at 110 nM. In addition, the median effective dose (ED50) (usually the midpoint of the dose-response relation) in the test on MAPK14 (Balb/c mice) was 6 mg/kg. Further, the IC50 – broadly, the concentration at which inhibition is half-maximal – against MAPK14 was found to be 50 nM.

The compound `C[C@]1(NC(=O)c2ccccc2)CO[C@H](c2nc(-c3ccncc3)c(-c3ccc(F)cc3)[nH]2)OC1` returned an EC50 at MAPK14 (human) of 110 nM. This compound also gave an ED50 with MAPK14 (Balb/c mice) of 11 mg/kg. On MAPK14, this compound had a half-inhibitory concentration (IC50) of 44 nM.

Regarding `Fc1ccc(-c2[nH]c([C@H]3OC[C@H](Cc4ccccc4)CO3)nc2-c2ccncc2)cc1`, the EC50 on MAPK14 (human) turned out to be 191 nM.

The compound `C[C@]1(CN)CO[C@@H](c2nc(-c3ccncc3)c(-c3ccc(F)cc3)[nH]2)OC1` returned an EC50 on MAPK14 (human) of 33 nM.

With `C[C@]1(CNC(=O)c2ccccc2)CO[C@H](c2nc(-c3ccncc3)c(-c3ccc(F)cc3)[nH]2)OC1`, at MAPK14 (human), the EC50 came out at 84 nM.
